# From PMC8206213, “An L-2-hydroxyglutarate biosensor based on specific transcriptional regulator LhgR” (Nature Communications, 2021)
# Where “and” joins values, the source holds several entries; their conditions need not be identical. Identical values can stand only once.
# Assay: LHGFR expressed in E. coli BL21(DE3), response to exogenous L-2-HG (time course and dose-response)
# Type: cell-based
# Conditions: Fig. 5a
# Procedure: To characterize the sensitivity and specificity of LHGFR expressed in E. coli BL21(DE3), 90 μL cell suspensions following 8 h carbon starvation were mixed with 10 μL increasing concentrations of L-2-HG or other compounds, and then added into a black 96-well plate (total 100 μL/per well), the fluorescence intensities were determined using an EnSight microplate reader (PerkinElmer, USA) and the following instrument settings: excitation at 430 nm, emission at 485 nm (mTFP) and 528 nm (Venus), time intervals of 5 min, the temperature at 37 °C, and shake at 180 rpm.
smiles,measurement,setting,value
"O=C(O)CC[C@H](O)C(=O)O [L-2-HG, L-2-Hydroxyglutarate]",Emission ratio,"0.1 μM L-2-HG, 0 min",1.012 and 0.989 and 0.997
same,Emission ratio,"0.1 μM L-2-HG, 5 min",1.02 and 0.9981 and 1.004
same,Emission ratio,"0.1 μM L-2-HG, 10 min",1.016 and 1.0025 and 1.009
same,Emission ratio,"0.1 μM L-2-HG, 15 min",1.023 and 1.007 and 1.026
same,Emission ratio,"0.1 μM L-2-HG, 20 min",1.034 and 1.009 and 1.038
same,Emission ratio,"0.1 μM L-2-HG, 25 min",1.022 and 1.0081 and 1.026
same,Emission ratio,"0.1 μM L-2-HG, 30 min",1.026 and 1.01 and 1.02
same,Emission ratio,"0.1 μM L-2-HG, 35 min",1.021 and 1.007 and 1.025
same,Emission ratio,"0.1 μM L-2-HG, 40 min",1.033 and 1.012 and 1.025
same,Emission ratio,"0.1 μM L-2-HG, 45 min",1.028 and 1.004 and 1.026
same,Emission ratio,"0.1 μM L-2-HG, 50 min",1.037 and 1.012 and 1.035
same,Emission ratio,"0.1 μM L-2-HG, 55 min",1.031 and 1.006 and 1.033
same,Emission ratio,"0.1 μM L-2-HG, 60 min",1.022 (2×) and 1.012
same,Emission ratio,"0.1 μM L-2-HG, 65 min",1.024 and 1.014 and 1.029
same,Emission ratio,"0.1 μM L-2-HG, 70 min",1.0212 and 1.016 and 1.02
same,Emission ratio,"0.1 μM L-2-HG, 75 min",1.025 (2×) and 1.033
same,Emission ratio,"0.1 μM L-2-HG, 80 min",1.031 and 1.009 and 1.021
same,Emission ratio,"0.1 μM L-2-HG, 85 min",1.0115 and 1.016 and 1.023
same,Emission ratio,"0.1 μM L-2-HG, 90 min",1.021 (2×) and 1.032
same,Emission ratio,"1 μM L-2-HG, 0 min",0.9972 and 0.975 and 0.9871
same,Emission ratio,"1 μM L-2-HG, 5 min",1.009 and 0.9962 and 0.9991
same,Emission ratio,"1 μM L-2-HG, 10 min",1.023 and 0.9982 and 1.005
same,Emission ratio,"1 μM L-2-HG, 15 min",1.0208 and 0.9996 and 1.009
same,Emission ratio,"1 μM L-2-HG, 20 min",1.0328 and 1.012 and 1.019
same,Emission ratio,"1 μM L-2-HG, 25 min",1.021 and 1.008 and 1.022
same,Emission ratio,"1 μM L-2-HG, 30 min",1.0327 and 1.008 (2×)
same,Emission ratio,"1 μM L-2-HG, 35 min",1.03 and 0.9986 and 1.019
same,Emission ratio,"1 μM L-2-HG, 40 min",1.036 and 1.0055 and 1.012
same,Emission ratio,"1 μM L-2-HG, 45 min",1.034 and 0.9995 and 1.022
same,Emission ratio,"1 μM L-2-HG, 50 min",1.045 and 1.003 and 1.021
same,Emission ratio,"1 μM L-2-HG, 55 min",1.024 and 1.003 and 1.034
same,Emission ratio,"1 μM L-2-HG, 60 min",1.027 and 1.003 and 1.025
same,Emission ratio,"1 μM L-2-HG, 65 min",1.026 and 0.994 and 1.032
same,Emission ratio,"1 μM L-2-HG, 70 min",1.026 and 0.9971 and 1.03
same,Emission ratio,"1 μM L-2-HG, 75 min",1.025 and 1.005 and 1.037
same,Emission ratio,"1 μM L-2-HG, 80 min",1.033 (2×) and 0.9987
same,Emission ratio,"1 μM L-2-HG, 85 min",1.013 and 1.0091 and 1.026
same,Emission ratio,"1 μM L-2-HG, 90 min",1.034 and 1.005 and 1.032
same,Emission ratio,"10 μM L-2-HG, 0 min",0.9974 and 0.9749 and 0.9795
same,Emission ratio,"10 μM L-2-HG, 5 min",1.027 and 0.9941 and 0.9973
same,Emission ratio,"10 μM L-2-HG, 10 min",1.031 and 0.9958 and 1.001
same,Emission ratio,"10 μM L-2-HG, 15 min",1.0289 and 1.0021 and 1.009
same,Emission ratio,"10 μM L-2-HG, 20 min",1.045 and 1 and 1.01
same,Emission ratio,"10 μM L-2-HG, 25 min",1.039 and 0.9977 and 1.015
same,Emission ratio,"10 μM L-2-HG, 30 min",1.037 and 0.9978 and 1.007
same,Emission ratio,"10 μM L-2-HG, 35 min",1.04 and 1.003 and 1.015
same,Emission ratio,"10 μM L-2-HG, 40 min",1.03 and 1 and 1.011
same,Emission ratio,"10 μM L-2-HG, 45 min",1.029 and 1.001 and 1.0118
same,Emission ratio,"10 μM L-2-HG, 50 min",1.038 and 1.001 and 1.016
same,Emission ratio,"10 μM L-2-HG, 55 min",1.018 and 0.9882 and 1.017
same,Emission ratio,"10 μM L-2-HG, 60 min",1.019 (2×) and 0.997
same,Emission ratio,"10 μM L-2-HG, 65 min",1.0139 and 0.9961 and 1.023
same,Emission ratio,"10 μM L-2-HG, 70 min",1.0139 and 0.9946 and 1.028
same,Emission ratio,"10 μM L-2-HG, 75 min",1.017 and 0.9951 and 1.034
same,Emission ratio,"10 μM L-2-HG, 80 min",1.022 and 0.9886 and 1.029
same,Emission ratio,"10 μM L-2-HG, 85 min",1.023 and 0.9843 and 1.034
same,Emission ratio,"10 μM L-2-HG, 90 min",1.009 and 0.9801 and 1.033
same,Emission ratio,"20 μM L-2-HG, 0 min",0.9789 and 0.9659 and 0.9802
same,Emission ratio,"20 μM L-2-HG, 5 min",0.9958 and 0.9868 and 0.9915
same,Emission ratio,"20 μM L-2-HG, 10 min",1.008 and 0.9945 and 0.999
same,Emission ratio,"20 μM L-2-HG, 15 min",1.027 and 1.004 and 1.005
same,Emission ratio,"20 μM L-2-HG, 20 min",1.024 and 1.0082 and 1
same,Emission ratio,"20 μM L-2-HG, 25 min",1.026 and 1.013 and 1.0078
same,Emission ratio,"20 μM L-2-HG, 30 min",1.036 and 1.005 and 1.016
same,Emission ratio,"20 μM L-2-HG, 35 min",1.021 and 1.001 and 1.019
same,Emission ratio,"20 μM L-2-HG, 40 min",1.043 and 1.002 and 1.018
same,Emission ratio,"20 μM L-2-HG, 45 min",1.041 and 1.009 and 1.022
same,Emission ratio,"20 μM L-2-HG, 50 min",1.04 and 1.006 and 1.0167
same,Emission ratio,"20 μM L-2-HG, 55 min",1.015 and 1.004 and 1.027
same,Emission ratio,"20 μM L-2-HG, 60 min",1.0355 and 0.9994 and 1.024
same,Emission ratio,"20 μM L-2-HG, 65 min",1.024 and 1.003 and 1.019
same,Emission ratio,"20 μM L-2-HG, 70 min",1.023 and 0.9958 and 1.025
same,Emission ratio,"20 μM L-2-HG, 75 min",1.0243 and 1.007 and 1.0344
same,Emission ratio,"20 μM L-2-HG, 80 min",1.023 and 0.9899 and 1.029
same,Emission ratio,"20 μM L-2-HG, 85 min",1.012 and 1.001 and 1.028
same,Emission ratio,"20 μM L-2-HG, 90 min",1.022 and 0.9961 and 1.035
same,Emission ratio,"100 μM L-2-HG, 0 min",0.9864 and 0.9735 and 0.9711
same,Emission ratio,"100 μM L-2-HG, 5 min",1.005 and 0.9924 and 0.9939
same,Emission ratio,"100 μM L-2-HG, 10 min",1.009 and 1.008 and 1.012
same,Emission ratio,"100 μM L-2-HG, 15 min",1.0245 and 1.016 and 1.019
same,Emission ratio,"100 μM L-2-HG, 20 min",1.0318 and 1.022 and 1.0268
same,Emission ratio,"100 μM L-2-HG, 25 min",1.0276 and 1.029 and 1.024
same,Emission ratio,"100 μM L-2-HG, 30 min",1.034 and 1.025 and 1.028
same,Emission ratio,"100 μM L-2-HG, 35 min",1.039 and 1.026 and 1.037
same,Emission ratio,"100 μM L-2-HG, 40 min",1.0304 and 1.029 and 1.028
